The target in data set [1] is T1, Amylin 3(a) receptor (human calcitonin receptor (CTa) and RAMP-3) (Homo sapiens, UniProt O60896+P30988).
T1 construct: expressed in transfected cells; host or cells: BHK570 cells, stably transfected with a CRE-luciferase reporter
The experiment in a line: Luciferase assay (III), BHK Amylin 3(a)//CRE-luc cells. Format: cell-based. Particulars: BHK cells with Amylin 3(a) receptor and CRE luciferase reporter, 4 hours incubation; read-out: Potency Luciferase. An outline of the steps: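 BHK570 cells stably expressing CTa, RAMP-3 and a CRE-luciferase reporter, seeded at about 20,000 cells/well and grown overnight. Cells were exposed to standard or sample for 4 h at 37° C in phenol red-free DMEM with 10% FBS and 10 mM Hepes, pH 7,4. Luminescence was read after 30 min LucLite at room temperature.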

Data set [2] can be described thus: Assay (VI) PK - determination of T½ in rat. As to conditions: sc, terminal plasma half-life, subcutaneous, approx 20 nmol/kg, male Sprague Dawley rats. Format: in vivo. As to the method: Assay (VI) PK—Determination OF T½ in Rat
T½ is the terminal half-life=ln 2/λz of a compound in plasma. λz is the first order rate constant associated with the terminal (log-linear) portion of the plasma concentration-time curve and is estimated by linear regression of time vs. log concentration.
T½ values of the amylin analogues of the invention is determined by pharmacokinetic studies in Sprague Dawley male rats, from Taconic Europe and the principles of laboratory animal care are followed.
An acclimatization period of approximately 7 days was allowed before the animals entered the study. At start of the acclimatization period the rats were in the weight range of 300-400 g. The rats had permanent catheters inserted in a. carotis which were used for blood sampling.
The studies were conducted in an animal room which was illuminated to give a cycle of approx 12 hours light and 12 hours darkness. The animals were housed individually due to the catheters and had food and water ad lib. The animals were weighed on the days of dosing.
In the present studies the test substances were administered subcutaneously in approx 20 nmol/kg dose. The animals received a single subcutaneous injection to the neck using a 25 G needle with syringe. Each test substance was given to typically three but in some cases two or four animals.
A full plasma concentration-time profile, employing 8-10 sampling points, was obtained from each animal. In example blood samples were collected according to the following schedule:
After subcutaneous administration:
Predose (0), 0.5, 1, 1.5, 2, 4, 6, 12, 24, 48 and 72 hours after injection. At each sampling time, 0.08 to 0.10 ml of blood was drawn from each animal. The blood samples were taken via the catheter.
The blood samples were collected into EDTA test tubes. Blood samples were kept on ice for max 20 min. before centrifugation. Plasma was separated using centrifugation (i.e. at 4° C., 10 min., 1500 G) and was immediately transferred to Micronic tubes or PCR plates. Approximately 40 μl plasma was transferred and was stored at −20° C. until assayed. The plasma samples were assayed for the content of amylin using an ELISA assay.
The plasma concentration-time profiles were analysed by a non-compartmental pharmacokinetic analysis (NCA) using WinNonlin Professional 5.0 (Pharsight Inc., Mountain View, Calif., USA). NCA was performed using the individual plasma concentration-time profiles from each animal. T½ is the terminal half-life=ln 2/λz and was determined from λz, the first order rate constant associated with the terminal (log-linear) portion of the curve, estimated by linear regression of time vs. log concentration.
ELISA Plasma Assay for Amylin Quantification
The human amylin ELISA is a monoclonal antibody-based sandwich immunoassay for determining amylin levels in human plasma. The capture antibody recognizes human amylin, amylin acid (deamidated amylin), a 1-20 fragment of amylin, but not reduced amylin. The detection antibody binds to reduced or unreduced human amylin but not amylin acid and is complexed with streptavidin-alkaline phosphatase. The substrate, 4-methylumbelliferyl phosphate, is applied to the completed sandwich and the fluorescent signal, monitored at 355 nm/460 nm, is proportional to the amount of amylin present in the sample.

The source of these data is patent publication US8895504B2, “Amylin derivatives” (priority 2008, dated 2014).

*1 amine or outer side, *2 acyl side, *3 side chain or, on linkers, in order; H or OH if unused. Where a SMILES comes first, the peptide text is derived from it. Bridges are numbered along the chain shown (N, C = ends). The star is where a group is joined. C20 diacid = O=C(O)CCCCCCCCCCCCCCCCCCC(=O)*; γGlu = O=C(O)[C@H](CCC(=O)[*:2])N[*:1]

T1 sequence (O60896 24-148): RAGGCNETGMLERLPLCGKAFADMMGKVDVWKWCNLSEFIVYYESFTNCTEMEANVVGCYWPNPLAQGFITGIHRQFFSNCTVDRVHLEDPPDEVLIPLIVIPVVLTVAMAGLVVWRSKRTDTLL
T1 sequence (P30988 25-474): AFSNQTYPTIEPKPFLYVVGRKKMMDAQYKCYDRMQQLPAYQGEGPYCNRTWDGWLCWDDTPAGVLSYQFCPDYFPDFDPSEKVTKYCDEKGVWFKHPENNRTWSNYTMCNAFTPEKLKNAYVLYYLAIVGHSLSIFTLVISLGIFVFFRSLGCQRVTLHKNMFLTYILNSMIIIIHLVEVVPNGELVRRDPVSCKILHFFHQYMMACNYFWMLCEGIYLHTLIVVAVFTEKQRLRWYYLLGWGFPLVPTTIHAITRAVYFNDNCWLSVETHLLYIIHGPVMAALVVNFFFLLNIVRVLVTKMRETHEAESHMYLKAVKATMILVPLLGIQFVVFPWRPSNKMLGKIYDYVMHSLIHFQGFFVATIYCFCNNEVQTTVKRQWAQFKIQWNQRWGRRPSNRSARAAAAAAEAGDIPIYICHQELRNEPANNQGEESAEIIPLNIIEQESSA

The term half-life denotes the time needed for the level to fall by half in the phase considered. A lower half-life goes with rapid decline. Take `CC[C@H](C)[C@H](NC(=O)[C@@H]1CCCN1C(=O)CNC(=O)[C@H](Cc1ccccc1)NC(=O)[C@H](CC(N)=O)NC(=O)[C@H](CC(N)=O)NC(=O)[C@H](CO)NC(=O)[C@H](CO)NC(=O)[C@H](Cc1c[nH]cn1)NC(=O)[C@H](Cc1c[nH]cn1)NC(=O)[C@H](CC(C)C)NC(=O)[C@H](Cc1ccccc1)NC(=O)[C@H](CC(N)=O)NC(=O)[C@H](C)NC(=O)[C@H](CC(C)C)NC(=O)[C@H](CCCNC(=N)N)NC(=O)[C@H](CCC(N)=O)NC(=O)[C@@H](NC(=O)[C@H](C)NC(=O)[C@@H]1CSSC[C@H](NC(=O)[C@H](Cc2c[nH]cn2)NC(=O)[C@H](Cc2c[nH]cn2)NC(=O)[C@H](Cc2c[nH]cn2)NC(=O)CC[C@H](NC(=O)CCCCCCCCCCCCCCCCCCC(=O)O)C(=O)O)C(=O)N[C@@H](CC(N)=O)C(=O)N[C@@H]([C@@H](C)O)C(=O)N[C@@H](C)C(=O)N[C@@H]([C@@H](C)O)C(=O)N1)[C@@H](C)O)C(=O)N[C@@H](CC(C)C)C(=O)N1CCC[C@H]1C(=O)N1CCC[C@H]1C(=O)N[C@H](C(=O)N[C@@H](CC(N)=O)C(=O)N[C@H](C(=O)NCC(=O)N[C@@H](CO)C(=O)N[C@@H](CC(N)=O)C(=O)N[C@H](C(=O)N[C@@H](Cc1ccc(O)cc1)C(N)=O)[C@@H](C)O)C(C)C)[C@@H](C)O` [Example 39, N-alpha-[(S)-4-Carboxy-4-(19-carboxynonadecanoylamino)butyryl]-His-His-[His1,His17]-pramlintide] ({C20 diacid-γGlu}-HHHCNTATCATQRLANFLHHSSNNFGPILPPTNVGSNTY-NH2; disulfide 4-9): the EC50 in data set [1] worked out at 0.06 nM. In data set [2], this compound gave a half-life of 840 min.
